From paper PMC11827853, “C2230, a preferential use- and state-dependent CaV2.2 channel blocker, mitigates pain behaviors across multiple pain models” (The Journal of Clinical Investigation, 2024)

Assays:
CaV1.2 = tested on: T1, CaV1.2; experiment: patch-clamp of heterologously expressed channel, Vh -80 mV ([…] at -50 mV); type: cell-based
T1 construct: gene CACNA1C

[1] = target: T2, CaV2.2 (N-type) calcium channel (Rattus norvegicus, UniProt Q02294); experiment: patch-clamp in HEK293 cells expressing the channel, Vh -50 mV ([…] at -80 mV); type: cell-based
T2 construct: gene Cacna1b
T2 sequence (Q02294 whole entry): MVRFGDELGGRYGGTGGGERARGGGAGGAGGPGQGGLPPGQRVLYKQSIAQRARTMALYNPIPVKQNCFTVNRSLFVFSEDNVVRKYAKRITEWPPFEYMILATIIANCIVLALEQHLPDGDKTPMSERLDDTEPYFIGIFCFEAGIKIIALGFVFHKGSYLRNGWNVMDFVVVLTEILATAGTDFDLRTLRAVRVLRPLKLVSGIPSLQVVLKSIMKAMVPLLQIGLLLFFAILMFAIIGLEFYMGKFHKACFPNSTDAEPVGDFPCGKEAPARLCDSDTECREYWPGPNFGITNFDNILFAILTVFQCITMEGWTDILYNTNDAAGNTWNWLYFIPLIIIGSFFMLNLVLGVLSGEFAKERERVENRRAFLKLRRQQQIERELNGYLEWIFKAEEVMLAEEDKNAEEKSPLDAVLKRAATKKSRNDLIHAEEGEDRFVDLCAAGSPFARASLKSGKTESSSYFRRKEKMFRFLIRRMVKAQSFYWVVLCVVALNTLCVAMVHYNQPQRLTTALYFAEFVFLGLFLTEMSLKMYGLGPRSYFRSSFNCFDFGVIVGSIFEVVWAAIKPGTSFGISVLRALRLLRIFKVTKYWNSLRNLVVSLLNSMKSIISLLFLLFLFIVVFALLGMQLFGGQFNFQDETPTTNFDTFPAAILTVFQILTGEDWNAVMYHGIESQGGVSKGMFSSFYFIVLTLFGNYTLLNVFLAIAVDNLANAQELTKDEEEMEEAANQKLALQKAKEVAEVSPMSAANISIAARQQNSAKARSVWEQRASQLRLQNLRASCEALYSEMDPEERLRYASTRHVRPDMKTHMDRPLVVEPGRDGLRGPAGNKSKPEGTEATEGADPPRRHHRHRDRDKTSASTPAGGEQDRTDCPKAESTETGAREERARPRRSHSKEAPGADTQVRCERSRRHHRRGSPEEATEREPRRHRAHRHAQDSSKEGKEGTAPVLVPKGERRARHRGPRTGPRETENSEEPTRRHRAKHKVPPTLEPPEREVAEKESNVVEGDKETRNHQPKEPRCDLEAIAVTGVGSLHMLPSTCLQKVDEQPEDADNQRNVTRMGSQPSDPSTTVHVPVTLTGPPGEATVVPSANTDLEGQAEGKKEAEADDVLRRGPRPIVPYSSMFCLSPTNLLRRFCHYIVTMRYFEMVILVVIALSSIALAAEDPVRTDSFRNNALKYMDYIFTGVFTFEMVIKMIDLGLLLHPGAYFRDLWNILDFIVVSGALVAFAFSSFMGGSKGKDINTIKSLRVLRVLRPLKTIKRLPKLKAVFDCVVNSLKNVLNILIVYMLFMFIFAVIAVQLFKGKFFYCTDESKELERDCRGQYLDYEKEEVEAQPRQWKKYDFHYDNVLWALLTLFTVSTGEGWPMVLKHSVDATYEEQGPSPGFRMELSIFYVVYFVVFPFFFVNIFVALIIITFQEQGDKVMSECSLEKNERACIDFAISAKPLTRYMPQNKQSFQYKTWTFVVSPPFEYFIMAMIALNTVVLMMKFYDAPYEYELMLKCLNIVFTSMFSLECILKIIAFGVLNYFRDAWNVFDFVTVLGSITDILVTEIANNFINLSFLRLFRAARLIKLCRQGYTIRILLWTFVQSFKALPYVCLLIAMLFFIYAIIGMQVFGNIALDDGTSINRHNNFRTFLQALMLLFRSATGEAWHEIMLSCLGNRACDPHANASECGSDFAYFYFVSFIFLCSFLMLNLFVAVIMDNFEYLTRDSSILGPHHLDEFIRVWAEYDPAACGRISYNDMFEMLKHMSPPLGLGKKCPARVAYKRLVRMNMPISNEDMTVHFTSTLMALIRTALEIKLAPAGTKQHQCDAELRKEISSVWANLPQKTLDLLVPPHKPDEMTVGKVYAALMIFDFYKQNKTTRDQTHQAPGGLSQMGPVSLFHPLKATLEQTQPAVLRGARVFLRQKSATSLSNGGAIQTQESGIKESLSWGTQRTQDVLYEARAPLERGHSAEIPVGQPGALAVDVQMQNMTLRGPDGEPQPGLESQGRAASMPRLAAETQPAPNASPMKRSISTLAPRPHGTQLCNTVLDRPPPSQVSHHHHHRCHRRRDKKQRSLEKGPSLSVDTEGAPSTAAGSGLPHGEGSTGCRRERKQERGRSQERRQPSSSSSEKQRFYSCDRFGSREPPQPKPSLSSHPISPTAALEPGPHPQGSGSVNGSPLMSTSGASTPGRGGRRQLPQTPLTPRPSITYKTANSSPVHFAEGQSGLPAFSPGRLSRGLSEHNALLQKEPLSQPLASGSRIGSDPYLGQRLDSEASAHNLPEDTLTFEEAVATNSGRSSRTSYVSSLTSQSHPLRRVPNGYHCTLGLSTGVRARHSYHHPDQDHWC

IC50 [1]: 1300 ± 100 nM
SMILES: COc1ccc(OCC(O)CNC2CCCC2)c(C(C)(C)C)c1 (racemic) [C2230, 1-(2-tert-butyl-4-methoxyphenoxy)-3-(cyclopentylamino)propan-2-ol]
IC50 (CaV1.2): 22.7 ± 6.3 µM
